In patent publication US20230092769A1 (SHANGHAI BENEMAE PHARMACEUTICAL CORPORATION, priority 2020, published 2023):
Several values for one entry are separate records, joined by “and”; a condition that tells them apart may be missing. Equal values may be shown once.

Key:
Format in all cases: in vivo
[1] = tested on: STZ-induced diabetic C57BL/6 mice; assay: Blood glucose after single dosing in STZ-induced diabetic C57BL/6 mice (Example 2); conditions: for blood glucose 15 min / blood glucose 30 min / blood glucose 60 min / blood glucose 120 min / blood glucose 180 min / blood glucose 240 min / AUC(0-120 min) of blood glucose / blood glucose 0 min: single s.c. dose; for blood glucose 0 min: pre-dose
Experimental: Animals: Male C57BL/6 mice (n=70) were purchased from Shanghai Jihui Laboratory Animal Care Co., Ltd. Upon arrival, the mice were housed in an animal facility at Shanghai University of Medicine & Health Sciences, under constant temperature (20-24° C.) and humidity (40-70%). Housing was provided at 12:12-hour light-dark cycle.
Active agents: Insulin glargine was obtained from Sanofi and stored at a temperature of 2-8° C. Beinaglutide having the sequence of […](SEQ ID NO: 1) was obtained from Benemae (beinaglutide injection, 2 mg/mL) and stored at 2-8° C.
(§1) After one-week acclimation, the mice were fed with high fat diet with 60 kcal % fat (D12492, Research Diets) for 3 weeks before STZ injection. Diabetic model was induced with 5 consecutive days of multiple low-dose STZ injection (50 mg/kg, intraperitoneally; i.p.). During modeling period, the mice were fasted for 4 hours before STZ treatment each day. The STZ solution (5 mg/ml) was freshly prepared in 0.1 M sodium citrate buffer (pH 4.5) before use and injected within 10 minutes of preparation. Seven days later, the mice with non-fasted blood glucose between 16.7 mM and 27.7 mM were selected and randomized into different groups by blood glucose level and body weight. At 9 am (T=0 minute) of Day 1, the mice were subcutaneously administrated with vehicle, insulin glargine, beinaglutide, or a mixture of insulin glargine and beinaglutide, which were mixed immediately before injection (Table 3). After first injection, tail blood glucose levels were measured at various intervals after injection, at 15 minutes, 30 minutes, 60 minutes, 120 minutes, 180 minutes, and 240 minutes, respectively. Subsequently, the mice of four groups (No. 1, No. 2, No. 4, and No. 6) continued to receive multiple dosing for 4 weeks. Body weight was measured twice per week. On day 28, after blood glucose measurement, the mice were fasted for 6 hours from 9 am, followed by an oral glucose tolerance test (glucose solution: 1 g/kg, 10 ml/kg). The blood glucose was monitored at 0 minute (pre-glucose loading), 15 minutes, 30 minutes, 60 minutes and 120 minutes after glucose loading.

[2] = Body weight change during 4-week multiple dosing in STZ-induced diabetic C57BL/6 mice; conditions: for body weight change Day 0 / body weight change Day 4 / body weight change Day 7 / body weight change Day 8 / body weight change Day 10 / body weight change Day 12 / body weight change Day 14 / body weight change Day 16 / body weight change Day 18 / body weight change Day 20 / body weight change Day 22 / body weight change Day 24 / body weight change Day 26 / body weight change Day 28: IGlar 5 U/kg s.c., 1st week bid, 2nd to 4th week tid; for body weight change Day 0: baseline
Experimental: as §1

[3] = tested on: STZ-induced diabetic C57BL/6 mice; assay: Fasting blood glucose on Day 28 after 6 hours fasting, STZ-induced diabetic C57BL/6 mice; conditions: Day 28, 6 hours fasting, IGlar 5 U/kg multiple dosing
Experimental: as §1, with “Subsequently, the mice of four groups (No. 1, No. 2, No. 4, and No. 6) continued to receive multiple dosing for 4 weeks.” left out, “On day 28, after blood glucose measurement, the mice were fasted for 6 hours from 9 am, followed by an oral glucose tolerance test (glucose solution: 1 g/kg, 10 ml/kg).” left out
On Day 28, the fasting blood glucose was measured after 6 hours fasting.

[4] = tested on: STZ-induced diabetic C57BL/6 mice; assay: Oral glucose tolerance test (OGTT) on Day 28, STZ-induced diabetic C57BL/6 mice; parameters: OGTT blood glucose AUC: unit: mM·min
Experimental: The mice fasted for about 6 hours were orally administrated with glucose solution (1 g/kg). Blood glucose was measured at indicated time points.
as §1

[5] = Insulin glargine 5 U/kg, group MEAN, n=6
[6] = Insulin glargine 5 U/kg, group MEAN, n=6, listed as IGlar
[7] = Insulin glargine 5 U/kg, individual animal
[8] = Insulin glargine 10 U/kg, group MEAN, n=6
[9] = Insulin glargine 10 U/kg, group MEAN, n=6, listed as IGlar
[10] = Insulin glargine 10 U/kg, individual animal

Substance: insulin glargine
- blood glucose 15 min [1, 5]: 25.35 mM
- blood glucose 30 min [1, 5]: 16.95 mM
- blood glucose 60 min [1, 5]: 6.07 mM
- blood glucose 120 min [1, 5]: 7.02 mM
- blood glucose 180 min [1, 5]: 11.80 mM
- blood glucose 240 min [1, 5]: 18.83 mM
- AUC(0-120 min) of blood glucose ([1]; Insulin glargine 5 U/kg, group MEAN, n=6, in mM·min (unit assumed)): 2864
- AUC(0-120 min) of blood glucose [1, 6]: significant reduction of blood glucose
- blood glucose 60 min [1, 6]: 6.07 ± 0.43 mM
- blood glucose 15 min [1, 7]: 23.4 mM and 25.7 mM and 26.6 mM and 24.1 mM and 26.3 mM and 26 mM
- blood glucose 30 min [1, 7]: 19.7 mM and 8.7 mM and 17.9 mM and 16.6 mM and 21.2 mM and 17.6 mM
- blood glucose 60 min [1, 7]: 6.4 mM and 6.2 mM and 5.9 mM (2×) and 5.4 mM and 6.6 mM
- blood glucose 120 min [1, 7]: 5.6 mM and 7.5 mM and 12.2 mM and 4.4 mM and 7.8 mM and 4.6 mM
- blood glucose 180 min [1, 7]: 10.8 mM and 14.1 mM and 17.2 mM and 8.9 mM and 11.5 mM and 8.3 mM
- blood glucose 240 min [1, 7]: 18.8 mM and 23.2 mM and 23.5 mM and 16.7 mM and 17.7 mM and 13.1 mM
- AUC(0-120 min) of blood glucose ([1]; Insulin glargine 5 U/kg, individual animal, in mM·min (unit assumed)): 2864 and 3072 and 3731 and 2489 and 3047 and 2409
- blood glucose 0 min [1, 5]: 27.55 mM
- blood glucose 0 min [1, 7]: 31.1 mM and 29.3 mM and 25.9 mM and 28.3 mM and 25.3 mM and 25.4 mM
- blood glucose 15 min [1, 8]: 26.68 mM
- blood glucose 30 min [1, 8]: 14.68 mM
- blood glucose 60 min [1, 8]: 7.65 mM
- blood glucose 120 min [1, 8]: 5.50 mM
- blood glucose 180 min [1, 8]: 9.95 mM
- blood glucose 240 min [1, 8]: 20.18 mM
- AUC(0-120 min) of blood glucose ([1]; Insulin glargine 10 U/kg, group MEAN, n=6, in mM·min (unit assumed)): 3986
- AUC(0-120 min) of blood glucose [1, 9]: significant reduction of blood glucose
- blood glucose 120 min [1, 9]: 5.50 ± 2.74 mM
- blood glucose 180 min [1, 9]: 9.95 ± 5.22 mM
- blood glucose 15 min [1, 10]: 24.4 mM (2×) and 23.6 mM and 30.3 mM and 29 mM and 28.4 mM
- blood glucose 30 min [1, 10]: 17.3 mM and 10.6 mM and 3.1 mM and 11.1 mM and 26.1 mM and 19.9 mM
- blood glucose 60 min [1, 10]: 9.6 mM and 5 mM and 7 mM and 5.2 mM and 13.3 mM and 5.8 mM
- blood glucose 120 min [1, 10]: 10.8 mM and 4.2 mM and 5.4 mM and 3 mM and 5.3 mM and 4.3 mM
- blood glucose 180 min [1, 10]: 19.3 mM and 9.4 mM and 6.1 mM and 5.8 mM and 6.7 mM and 12.4 mM
- blood glucose 240 min [1, 10]: 26.4 mM and 16.1 mM and 15.4 mM and 14.3 mM and 19.3 mM and 29.6 mM
- AUC(0-120 min) of blood glucose ([1]; Insulin glargine 10 U/kg, individual animal, in mM·min (unit assumed)): 3986 and 2308 and 2209 and 1991 and 3146 and 3254
- blood glucose 0 min [1, 8]: 27.77 mM
- blood glucose 0 min [1, 10]: 26.7 mM and 25.5 mM and 29 mM and 24.6 mM and 30.2 mM and 30.6 mM
- blood glucose after a single administration (in words) ([1]; STZ-induced hyperglycemic mice, single s.c. administration): significantly reduced blood glucose
- body weight change Day 0 ([2]; group MEAN): 0.0 g
- body weight change Day 0 ([2]; individual animal): 0.0 g
- body weight change Day 4 ([2]; group MEAN): 0.0 g
- body weight change Day 7 ([2]; group MEAN): 0.7 g
- body weight change Day 8 ([2]; group MEAN): 0.7 g
- body weight change Day 10 ([2]; group MEAN): 0.8 g
- body weight change Day 12 ([2]; group MEAN): 0.7 g
- body weight change Day 14 ([2]; group MEAN): 1.2 g
- body weight change Day 16 ([2]; group MEAN): 1.3 g
- body weight change Day 18 ([2]; group MEAN): 1.6 g
- body weight change Day 20 ([2]; group MEAN): 1.7 g
- body weight change Day 22 ([2]; group MEAN): 1.7 g
- body weight change Day 24 ([2]; group MEAN): 1.8 g
- body weight change Day 26 ([2]; group MEAN): 2.4 g
- body weight change Day 28 ([2]; group MEAN): 2.4 ± 0.4 g and 2.4 g
- body weight change Day 4 ([2]; individual animal): -0.2 g and 0.0 g and 0.6 g and -0.1 g and 0.3 g and -0.4 g
- body weight change Day 7 ([2]; individual animal): 0.2 g and 0.7 g and 1.0 g (2×) and 0.8 g and 0.5 g
- body weight change Day 8 ([2]; individual animal): 0.0 g and 1.1 g and 0.6 g and 0.7 g and 1.3 g and 0.4 g
- body weight change Day 10 ([2]; individual animal): 0.1 g and 1.0 g (2×) and 0.7 g and 1.1 g and 0.8 g
- body weight change Day 12 ([2]; individual animal): 0.2 g and 0.9 g and 0.4 g and 0.8 g and 1.3 g and 0.6 g
- body weight change Day 14 ([2]; individual animal): 0.3 g and 1.3 g and 0.8 g (2×) and 2.0 g and 1.9 g
- body weight change Day 16 ([2]; individual animal): 0.7 g and 1.3 g and 1.7 g (2×) and 1.0 g
- body weight change Day 18 ([2]; individual animal): 0.9 g and 1.2 g and 2.4 g (2×) and 1.3 g
- body weight change Day 20 ([2]; individual animal): 1.0 g (2×) and 1.9 g and 2.3 g and 2.5 g
- body weight change Day 22 ([2]; individual animal): 1.2 g and 1.7 g and 2.1 g and 2.6 g and 1.0 g
- body weight change Day 24 ([2]; individual animal): 1.3 g and 1.9 g and 2.3 g and 2.7 g and 0.6 g
- body weight change Day 26 ([2]; individual animal): 1.5 g and 2.2 g and 3.3 g and 3.7 g and 1.2 g
- body weight change Day 28 ([2]; individual animal): 1.7 g and 2.3 g and 2.9 g and 3.8 g and 1.4 g
- weight gain on Day 28, IGlar alone vs combo (in words) ([2]; IGlar 5 U/kg vs IGlar 5 U/kg & Bei 0.05 mg/kg, 4-week treatment): induced weight gain significantly higher than the combinational therapy of beinaglutide and insulin glargine
- fasting blood glucose, Mean ([3]; group mean): 14.0 ± 2.43 mM and 14.0 mM
- fasting blood glucose ([3]; individual animal): 16.1 mM and 9.4 mM and 7.6 mM and 15.9 mM and 20.9 mM
- blood glucose based on the AUC during OGTT (in words) ([4]; Day 28, glucose 1 g/kg oral, Bei 0.1 mg/kg, IGlar 5 U/kg, or IGlar 5 U/kg & Bei 0.05 mg/kg multiple dosing): significantly reduced blood glucose based on the AUC
- OGTT blood glucose 0 min, MEAN ([4]; IGlar 5 U/kg, Day 28, group mean, 0 min): 13.98 mM
- OGTT blood glucose AUC, MEAN ([4]; IGlar 5 U/kg, Day 28, group mean, 0-120 min): 2390.25
- OGTT blood glucose 15 min, MEAN ([4]; IGlar 5 U/kg, Day 28, group mean, 15 min): 27.90 mM
- OGTT blood glucose 30 min, MEAN ([4]; IGlar 5 U/kg, Day 28, group mean, 30 min): 24.60 mM
- OGTT blood glucose 60 min, MEAN ([4]; IGlar 5 U/kg, Day 28, group mean, 60 min): 20.04 mM
- OGTT blood glucose 120 min, MEAN ([4]; IGlar 5 U/kg, Day 28, group mean, 120 min): 13.72 mM
- OGTT blood glucose 0 min ([4]; IGlar 5 U/kg, Day 28, individual animals, 0 min): 16.1 mM and 9.4 mM and 7.6 mM and 15.9 mM and 20.9 mM
- OGTT blood glucose AUC ([4]; IGlar 5 U/kg, Day 28, individual animals, 0-120 min): 2820.0 and 2205.0 and 2178.8 and 2133.0 and 2614.5
- OGTT blood glucose 15 min ([4]; IGlar 5 U/kg, Day 28, individual animals, 15 min): 33.3 mM and 25.4 mM and 24 mM and 25.9 mM and 30.9 mM
- OGTT blood glucose 30 min ([4]; IGlar 5 U/kg, Day 28, individual animals, 30 min): 27.9 mM and 23.4 mM and 23.1 mM and 23.3 mM and 25.3 mM
- OGTT blood glucose 60 min ([4]; IGlar 5 U/kg, Day 28, individual animals, 60 min): 23 mM and 18.6 mM and 19 mM and 16.4 mM and 23.2 mM
- OGTT blood glucose 120 min ([4]; IGlar 5 U/kg, Day 28, individual animals, 120 min): 17.9 mM and 13 mM and 12.9 mM and 12.1 mM and 12.7 mM
